# Assay results reported in patent US20140179681A1, “METHODS AND COMPOSITIONS OF TARGETED DRUG DEVELOPMENT” (priority 2010, published 2014).
# Structures can show the parent of a compound that is named as a salt. Where two headings read alike, the source gives them in different places.
# Legend:
# [1] = system: epithelial carcinoma A431 cell line; experiment: MTT Cell Proliferation Assay, A431 cells; type: cell-based; conditions: for MTT assay, % at 2.6 microMolar: cell line not stated; for MTT Assay IC50(A431/MDBK): A431: A431 cells
# Excerpt: (§1) The following example describes the MTT Cell Proliferation Assay.
# (§2) The MTT Cell Proliferation Assay is a colorimetric assay system that measures the reduction of the tetrazolium salt MTT (3-(4,5-dimethylthiazol-2-yl)-2,5-diphenyltetrazolium bromide) into insoluble formazan crystals, produced by the mitochondria of viable cells. […] The color can then be quantified by spectrophotometric means. Among the applications for the method are drug sensitivity, cytotoxicity, response to growth factors, and cell activation. The reduction of tetrazolium salts is now recognized as a safe, accurate alternative to radiometric testing.
# (§3) Two replicates on each cell plate and 2 duplicate plates gave 4 individual replicates of each concentration, in each cell line. Concentrations were diluted in 100% DMSO from 25 mM stocks.
# (§4) Twelve 96 well plates of each cell line were plated. Plating was done by dislodging cells as in passage protocol, counting on a hemocytometer, re-suspending in standard growth media, and plating using a multichannel pippetor.
# (§5) 16 μl of 25 mM stock+34 μl DMSO=8 mM starting concentrations, and serial diluted as with test compounds in same plate. […] Two replicates of each concentrations was run on each cell plate. All compound addition and cell treatments were done using aseptic technique under a laminar flow aseptic hood.
# (§6) Control: 0.5% DMSO in treatment media was used as the control.
# (§7) MTT dye (Thiazolyl Blue Tetrazolium Bromide, Sigma cat #M5655) stock was prepared in bulk and stored at 4° C. for use: 5 mgs/ml sterile PDS, shielded from light. 4 ul of this stock per 100 uls treatment media per well was used.
# (§8) Plates were incubated overnight prior to treatment, with treatment day=Day 0. Compound treatments were prepared prior to washing cells to minimize time cells were dry at room temperature after final aspiration. Compounds were diluted in 100% DMSO in 96 well polypropylene plates: 40 μl 25 mM stock+10 μl DMSO=20 mM; 20 μl of 20 mM+30 μl DMSO=8 mM; 20 μl of 8 mM+30 μl DMSO=3.2 mM; 20 μl of 3.2 mM+30 μl DMSO=1.3 mM; 20 μl of 1.3 mM+30 μl DMSO=0.51 mM.
# (§9) 5.0 μl/ml were added to treatment media, in sterile, 2.2 ml deep well plates=0.5% dmso final. Ten μl of each dmso concentration was added to 2.0 ml of treatment media and then mixed using a 1200 μl multichannel pipettor. Cell plates were treated from the deep well plates. Treatment media was standard growth media containing 0.5% FBS and standard additions. This reduced FBS concentration allowed for a slower growth rate in cells.
# (§10) Media was aspirated from cell plates, and washed with 200 μl/well sterile PBS. Aspirated PBS wash, and cell plates were treated with 200 μl of compound/treatment media per well, and incubated at 37° C., 5% CO2 for 3 days.
# (§11) Prior to harvesting, visual observations were made under an inverted microscope. Plates were harvested by: aspirating the growth media; adding back MTT dye/100 μl treatment media; and incubating plates at 37° C. for 1 hour. MTT dye was aspirated. 100 μl/well dmso was added, and then shaken on a Bellco plate shaker for 5 minutes, at 4.5 setting.
# (§12) Plates were read in a Tecan Sunrize UV plate reader, at 560 nm. Settings: Read mode, Outside Normal 2 sec; Shake settle time 3 sec. Data is reported as % inhibition, calculated for individual plates using control values from that plate.
# EGFR = biological target: T1, EGFR (Homo sapiens, UniProt P00533); experiment: EGFR in-cell Western (ICW) screening protocol (EGFR inhibition assay); type: cell-based; parameters: ICW 1 / ICW 2 / ICW Avg: unit not given here; conditions: for ICW Avg / ICW 1 / ICW 2: ICW assay; for ICW Avg: average of runs 1 and 2; for ICW 1: run 1; for ICW 2: run 2; for ICW assay: Table 10, % Inhibition of EGF dependent EGFR phosphorylation in A431 cells, compound 125 μM in assay
# T1 construct: host or cells: A431
# Protocol: The following example describes general EGFR in-cell Western (ICW) screening protocol. Methods are according to Chen et al. (2005) Analytical Biochemistry 338, 136-142 (incorporated herein by reference), except as otherwise noted.
# Cell Plates: A431 cells (ATCC # CRL-1555) were grown in Dulbecco's Modified Eagle Medium (DMEM; ATCC #30-2002) supplemented with 10% fetal bovine serum, 105 units/ml pen/strep (Invitrogen #15140155) and 2.1 mM L-glutamine (ATCC #30-2214). Cells were seeded into 96 well tissue culture plates (BD Falcon #353948) at a density of 30,000 cells per well and incubated at 37° C. with 5% CO2 overnight. Two cell plates were prepared for each compound plate.
# Serum Starvation: The cells were serum starved prior to compound addition. The media was removed by aspiration and the cells washed with PBS (200 μl/well; Invitrogen #20012-027). The PBS was removed by aspiration and replaced with 200 μl of DMEM (ATCC #30-2002) supplemented with 105 units/ml pen/strep (Invitrogen #15140155) and 2.1 mM 1-glutamine (ATCC #30-2214). The cell plates were incubated at 37° C./5% CO2 for 2 hours.
# Compound Plate Preparation: The test compounds were solvated in 100% DMSO (Sigma #472301-2L) at a concentration of 25 mM. Compounds found not to be completely soluble in 100% DMSO at 25 mM were diluted to 10 mM with 100% DMSO and TFA (Fluka #91699) added to a final concentration of 0.2%. 40 μl of test compound was added to the appropriate well of a 96 well plate (Falcon #351190). As controls, 6 μM EGFR kinase inhibitor PD168393 (EMD/Calbiochem #513033) in 100% DMSO and DMSO alone were added to various wells. Prepared compound plates were stored at RT prior to use and at 4° C. long term.
# Compound Dilution Plate Preparation: 250 μl of DMEM supplemented with 1 mg/ml BSA (Sigma A3059-10G) was added to the appropriate wells of a 96 well plate to prepare the compound dilution plates. Using a multichannel pipettor, 1.25 μl of compound from the compound plate was transferred into the compound dilution plate.
# Compound Addition: The starve media was removed from the cell plates by aspiration. Using a multichannel pipettor, the compound dilution plates were mixed by pipetting up and down three times. 50 μl of mixed, diluted compound was added to each of two rows/columns on each of two cell plates. The cell plates with compound were incubated at 37° C./5% CO2 for 4 hours.
# EGF Addition: 20 ng/ml EGF (Upstate #01-107) was prepared in DMEM supplemented with 1 mg/ml BSA. 50 μl of 20 or 0 ng/ml EGF was added to the appropriate wells without the removal of compound. The compound and EGF were mixed by pipetting up and down three times. The plates were incubated at 37° C./5% CO2 for 10 min. In some screening assays the final concentration of EGF used for simulation was 6.6, or 12.5 ng/ml rather than 10 ng/ml.
# Fixation and Triton Washing: The EGF+compound was removed by aspiration and 150 μl of freshly prepared Fixation Solution (1×PBS, Sigma P3813-10PK, and 4% Formaldehyde, Pierce #28908) was immediately added. The plates were incubated at RT for 20 min without shaking. The Fixation Solution was removed by aspiration and the plates washed four times with 200 μl each of Triton Wash Solution (1×PBS, Sigma P3813-10PK, and 0.1% Triton X-100, T8787-50ML) for 5 min with gentle shaking.
# Blocking and Probing: Following the last Triton Wash, the plates were blocked for 1.5 h at RT with shaking using 150 μl of Odyssey Blocking Buffer (LI-COR #927-40000). The block was removed by aspiration and 50 μl of diluted primary Ab mix was added. The plates were incubated at 4° C. overnight with gentle shaking. The plates were washed five times with 200 μl of PBST (1×PBS, Sigma P3813-10PK, and 0.1% Tween-20, Sigma P9416-50ML) for 5 min each with shaking 50 μl of diluted secondary Ab mix was added and the plates incubated at RT for 1 h with shaking. The plates were washed 5× with 200 μl of PBST for 5 min each with shaking. […]
# MDBK line = experiment: MTT Cell Proliferation Assay, MDBK cells; type: cell-based, bovine; conditions: Bos taurus, MDBK
# Excerpt: as §1, §2, §3, §4, §5, §6, §7, §8, §9, §10, §11, §12
# [2] = Homo sapiens, A-431, first value of 'a/b (c)', taken as A431 cells, read-out: MTT Screen, first value of cell
# [3] = Homo sapiens, A-431, A431 cells, first value of cell, read-out: MTT Assay IC50(A431/MDBK): A431
# [4] = first value of 'a/b (c)', taken as A431 cells
# T1 sequence (P00533 25-1210): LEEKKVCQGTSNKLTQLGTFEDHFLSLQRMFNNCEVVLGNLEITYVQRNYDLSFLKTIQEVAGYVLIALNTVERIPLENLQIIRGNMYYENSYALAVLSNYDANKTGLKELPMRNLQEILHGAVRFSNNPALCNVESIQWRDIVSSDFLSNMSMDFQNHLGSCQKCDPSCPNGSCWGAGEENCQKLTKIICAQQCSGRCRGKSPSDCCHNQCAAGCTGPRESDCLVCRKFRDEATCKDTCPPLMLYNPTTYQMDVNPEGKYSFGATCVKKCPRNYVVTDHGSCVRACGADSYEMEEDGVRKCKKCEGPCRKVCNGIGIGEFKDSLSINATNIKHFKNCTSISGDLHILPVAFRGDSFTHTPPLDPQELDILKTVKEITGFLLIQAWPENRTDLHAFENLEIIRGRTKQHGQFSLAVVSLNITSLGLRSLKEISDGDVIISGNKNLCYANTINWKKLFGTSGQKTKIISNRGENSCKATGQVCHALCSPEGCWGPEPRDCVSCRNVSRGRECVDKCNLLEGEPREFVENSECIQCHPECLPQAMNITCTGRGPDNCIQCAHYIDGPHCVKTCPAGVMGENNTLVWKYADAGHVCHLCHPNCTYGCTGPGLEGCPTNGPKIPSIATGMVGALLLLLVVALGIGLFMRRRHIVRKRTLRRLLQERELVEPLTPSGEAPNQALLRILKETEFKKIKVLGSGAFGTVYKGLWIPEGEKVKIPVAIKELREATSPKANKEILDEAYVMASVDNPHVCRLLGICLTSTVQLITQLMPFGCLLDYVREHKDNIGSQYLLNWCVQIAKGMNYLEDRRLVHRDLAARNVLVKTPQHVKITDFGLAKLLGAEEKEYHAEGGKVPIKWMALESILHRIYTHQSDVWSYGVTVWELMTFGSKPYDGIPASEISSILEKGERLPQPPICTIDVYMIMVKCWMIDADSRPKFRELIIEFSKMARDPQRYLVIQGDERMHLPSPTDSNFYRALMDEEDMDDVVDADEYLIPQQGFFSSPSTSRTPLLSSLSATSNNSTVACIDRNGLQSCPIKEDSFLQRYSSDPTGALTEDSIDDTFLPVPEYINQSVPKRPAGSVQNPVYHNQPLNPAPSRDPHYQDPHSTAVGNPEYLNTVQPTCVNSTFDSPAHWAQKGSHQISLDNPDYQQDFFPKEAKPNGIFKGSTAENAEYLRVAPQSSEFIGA
Compound,ICW Screen (ICW Inhibition) (EGFR),ICW Avg (EGFR),ICW 1 (EGFR),ICW 2 (EGFR),MTT Assay IC50(A431/MDBK): A431 ([1]; first value of cell),other results
O=C(CCc1ccco1)NC(=S)Nc1ccc(S(=O)(=O)NCCc2ccccc2)cc1 [AD4-10624],49.448,,,,,"IC50 [1, 2]: 25.6 µM; IC50 (MDBK line; second value of 'a/b (c)', taken as MDBK cells, read-out: MTT Screen, second value of cell): 16.8 µM"
Cc1nc(Nc2nc3c(c(-c4ccccc4)n2)CCCC3)nc2c(C)cccc12 [12229 + TFA],,25.97,16.57,35.37,,"IC50 [1, 3]: 19.2 µM; MTT Assay IC50(A431/MDBK): ratio in parentheses ([1]; ratio MDBK IC50 / A431 IC50 (selectivity)): 1.08; IC50 (MDBK line; MDBK cells, second value of cell, read-out: MTT Assay IC50(A431/MDBK): MDBK): 20.9 µM"
CC1CCc2cc(F)ccc2N1S(=O)(=O)c1ccc(NC(=S)Nc2cc(Cl)cc(Cl)c2)cc1 (centres unmarked) [AD4-12843],,,,,,"MTT assay, % at 2.6 microMolar ([1]; Table 10): 74%; ICW assay (EGFR): 43.3347"
CC(C)C(=O)NC(=S)Nc1ccc(S(=O)(=O)N(C)c2ccccc2)cc1 [AD4-12042],34.592,,,,,"MTT Screen, first value of cell [1, 4]: non- conver- gent"
CN(c1ccccc1)S(=O)(=O)c1ccc(NC(=S)NC(=O)C2CC2)cc1 [AD4-12164],45.64,,,,,"IC50 [1, 2]: 50.6 µM; IC50 ([1]; first value of 'a/b (c)', taken as A431 cells, read-out: MTT Screen, first value of cell): 51.4 µM"
Cc1ccc2c(C)nc(Nc3nc(C)cc(=O)[nH]3)nc2c1 [11725 + TFA],,28.93,26.65,31.20,,"IC50 [1, 3]: 13 µM"
CC(C)C(=O)NC(=S)Nc1ccc(S(=O)(=O)N2CCCC2)cc1 [AD4-11970],43.246,,,,,"MTT Screen, first value of cell [1, 4]: non- conver- gent"
Cc1ccc(C)c(NC(=S)Nc2ccc(S(=O)(=O)N3c4ccc(F)cc4CCC3C)cc2)c1 (centres unmarked) [AD4-12824],,,,,,"MTT assay (first value) ([1]; Table 10, first of x/y(ratio): A431, three day treatment, unit not printed (doses in μM)): Not Active; ICW assay (EGFR): 25.9501"
Cc1cc(C)c2nc(NC3=NC(c4ccccc4)CC(=O)N3)nc(C)c2c1 (centres unmarked) [AD4-12641 + TFA],,72.20,70.26,74.15,NOT ACTIVE,
COc1ccc(C2CC(=O)c3cnc(Nc4nc(-c5ccccc5)c5ccccc5n4)nc3C2)cc1 (centres unmarked) [11663 + TFA],,26.73,31.73,21.73,non-convergent,
CCCc1cc(=O)[nH]c(Nc2nc(C)c3ccc(OC)cc3n2)n1 [AD4-12652 + TFA],,73.45,82.35,64.55,NOT ACTIVE,
Cc1cc(C)c2nc(Nc3nc(CSc4ccc(Cl)cc4)cc(=O)[nH]3)nc(C)c2c1 [11726 + TFA],,30.87,35.72,26.02,NOT ACTIVE,
CCOc1cccc2c(C)nc(Nc3nc(-c4ccccc4)cc(=O)[nH]3)nc12 [compound 11492],,62.29,53.35,71.23,non-convergent,
Cc1ccc(C2CC(=O)c3cnc(Nc4nc(C)c5cccc(C)c5n4)nc3C2)cc1 (centres unmarked) [11673 + TFA],,25.35,33.30,17.39,non-convergent,
CCOc1cccc2c(C)nc(Nc3nc(C)c(Cc4ccc(C)cc4)c(=O)[nH]3)nc12 [11753 + TFA],,44.86,42.44,47.28,NOT ACTIVE,
CN(c1ccccc1)S(=O)(=O)c1ccc(NC(=S)NC(=O)/C=C/c2cccs2)cc1 [AD4-12288],35.584,,,,,"MTT Screen, first value of cell [1, 4]: non- conver- gent"
COC(=O)CCC(=O)NC(=S)Nc1ccc(S(=O)(=O)Nc2cc(C)cc(C)c2)cc1 [AD4-12093],29.436,,,,,"MTT Screen, first value of cell [1, 4]: non- conver- gent"
O=S(=O)(c1ccc(NC(=S)Nc2cccc(C(F)(F)F)c2)cc1)N1CCc2ccccc21 [AD4-12239],,,,,,"MTT assay, % at 2.6 microMolar ([1]; Table 10): 58%; ICW assay (EGFR): 67.8291"
CCCC(=O)NC(=S)Nc1ccc(S(=O)(=O)Nc2cc(C)on2)cc1 [AD4-12267],30.36,,,,,"MTT Screen, first value of cell [1, 4]: non- conver- gent"
CC1CCc2cc(F)ccc2N1S(=O)(=O)c1ccc(NC(=S)Nc2cccc(C(F)(F)F)c2)cc1 (centres unmarked) [AD4-12846],,,,,,"MTT assay, % at 2.6 microMolar ([1]; Table 10): 71%; ICW assay (EGFR): 71.4924"
